Test results reported in ChEMBL document CHEMBL5247617, “4-Arylthiosemicarbazide derivatives - Pharmacokinetics, toxicity and anti-Toxoplasma gondii activity in vivo” (Eur J Med Chem, 2022).
Active and inactive are the calls of the source. The calls are words filed in the database; no cut-off is given here.

Experiments:
[1] = Oral bioavailability in BALB/c mouse serum at 25 mg/kg measured upto 60 mins by LC-MS/MS analysis; assay type: ADME, organism-based
[2] = Elimination half-life in BALB/c mouse serum at 25 mg/kg, po measured upto 60 mins by LC-MS/MS analysis; assay type: ADME, organism-based; settings: in vivo, 1 h
[3] = Oral bioavailability in BALB/c mouse brain at 25 mg/kg measured upto 24 hrs by LC-MS/MS analysis; assay type: ADME, organism-based
[4] = Elimination half-life in BALB/c mouse serum at 50 mg/kg, po measured upto 60 mins by LC-MS/MS analysis; assay type: ADME, organism-based; settings: in vivo, 1 h
[5] = tested on: Toxoplasma gondii; test: Antiparasitic activity against Toxoplasma gondii RH infected in BALB/c mouse assessed as reduction of daughter tachyzoites in blood at 25 to 50 mg/kg, po administered for 5 days starting from 24 hrs post infection by real-time qPCR analysis; assay type: functional, organism-based; settings: dose 25-50 mg/kg, time 5.0 day
[6] = tested on: Toxoplasma gondii; test: Antiparasitic activity against Toxoplasma gondii RH infected in BALB/c mouse assessed as reduction of bradyzoite gene copies in heart at 25 mg/kg, po administered every 24 hrs for 5 days starting from 24 hrs post infection by real-time qPCR analysis; assay type: functional, organism-based; settings: time 5.0 day
[7] = Tmax in BALB/c mouse serum at 50 mg/kg, po measured upto 60 mins by LC-MS/MS analysis; assay type: ADME, organism-based; settings: in vivo, 1 h
[8] = Cmax in BALB/c mouse serum at 25 mg/kg, po measured upto 60 mins by LC-MS/MS analysis; assay type: ADME, organism-based; set-up: dose 25 mg/kg, time < 60 min, route po; settings: in vivo, 1 h
[9] = Toxicity in BALB/c mouse assessed as changes in liver weight at 50 mg/kg, po administered for 5 days and measured after 14 days; assay type: organism-based; settings: in vivo, 120 h, time 5 day
[10] = Oral bioavailability in BALB/c mouse serum at 50 mg/kg measured upto 60 mins by LC-MS/MS analysis; assay type: ADME, organism-based
[11] = tested on: Toxoplasma gondii; test: Antiparasitic activity against Toxoplasma gondii RH infected in human Hs27 cells assessed as parasitic growth inhibition incubated for 24 hrs followed by [5,6-3H] uracil addition and measured after 72 hrs by liquid scintillation counter analysis; assay type: functional, organism-based
[12] = tested on: L929; test: Cytotoxicity against mouse L929 cells assessed as reduction in cell viability incubated for 24 hrs by MTT assay; assay type: toxicity, cell-based; settings: l929, 24 h
[13] = Toxicity in BALB/c mouse assessed as changes in body weight at 25 to 50 mg/kg, po administered for 5 days and measured on day 1 and day 14; assay type: organism-based; settings: in vivo, 120 h, dose 25-50 mg/kg, time 5 day
[14] = Oral bioavailability in BALB/c mouse brain at 50 mg/kg measured upto 24 hrs by LC-MS/MS analysis; assay type: ADME, organism-based
[15] = tested on: HS27; test: Cytotoxicity against human HS27 cells assessed as reduction in cell viability; assay type: toxicity, cell-based
[16] = tested on: Toxoplasma gondii; test: Antiparasitic activity against Toxoplasma gondii RH infected in BALB/c mouse assessed as survival rate at 50 mg/kg, po administered every 12 hrs for 5 days starting from 24 hrs post infection by Kaplan-Meier method; assay type: functional; settings: 120 h, time 5 day
[17] = AUC in BALB/c mouse brain at 25 mg/kg, po measured upto 24 hrs by LC-MS/MS analysis; assay type: ADME, organism-based; set-up: time < 24 hrs, dose 25 mg/kg, route po
[18] = Tmax in BALB/c mouse serum at 25 mg/kg, po measured upto 60 mins by LC-MS/MS analysis; assay type: ADME, organism-based; settings: in vivo, 1 h
[19] = Cmax in BALB/c mouse serum at 50 mg/kg, po measured upto 60 mins by LC-MS/MS analysis; assay type: ADME, organism-based; set-up: time < 60 min, dose 50 mg/kg, route po; settings: in vivo, 1 h
[20] = Toxicity in BALB/c mouse assessed as changes in body weight at 1000 mg/kg, po administered once and observed for 10 days; assay type: organism-based; settings: in vivo, 240 h, time 10 day
[21] = Toxicity in BALB/c mouse assessed as changes in size of hepatocyte nuclei at 50 mg/kg, po administered for 5 days and measured after 14 days by hematoxylin-eosin staining based microscopic analysis; assay type: organism-based; settings: hepatocytes, 120 h, time 5 day
[22] = tested on: Toxoplasma gondii; test: Antiparasitic activity against Toxoplasma gondii RH infected in BALB/c mouse assessed as decrease in number of bradyzoite gene copies in brain at 50 mg/kg, po administered every 24 hrs for 5 days starting from 24 hrs post infection by real-time qPCR analysis; assay type: functional, organism-based; settings: time 5.0 day
[23] = Toxicity in BALB/c mouse assessed as microvesicular steatosis of hepatocytes at 50 mg/kg, po administered for 5 days and measured after 1 day by hematoxylin-eosin staining based microscopic analysis; assay type: organism-based; settings: in vivo, 120 h, time 5 day
[24] = Toxicity in BALB/c mouse assessed as changes in serum AST level at 50 mg/kg, po administered for 5 days and measured on day 1 and day 14 by ELISA method; assay type: organism-based; settings: in vivo, 120 h, time 5 day
[25] = Toxicity in BALB/c mouse assessed as changes in liver weight at 50 mg/kg, po administered for 5 days and measured after 1 day; assay type: organism-based; settings: in vivo, 120 h, time 5 day
[26] = AUC in BALB/c mouse serum at 50 mg/kg, po measured upto 60 mins by LC-MS/MS analysis; assay type: ADME, organism-based; set-up: time < 60 min, dose 50 mg/kg, route po; settings: in vivo, 1 h
[27] = tested on: Toxoplasma gondii; test: Antiparasitic activity against Toxoplasma gondii RH infected in BALB/c mouse assessed as decrease in IFNgamma level in serum at 25 to 50 mg/kg, po administered for 5 days starting from 24 hrs post infection by ELISA method; assay type: functional, organism-based; settings: dose 25-50 mg/kg, time 5.0 day
[28] = Toxicity in BALB/c mouse assessed as disseminated necrosis of hepatocytes at 50 mg/kg, po administered for 5 days and measured after 1 day by hematoxylin-eosin staining based microscopic analysis; assay type: organism-based; settings: in vivo, 120 h, time 5 day
[29] = Elimination half-life in BALB/c mouse brain at 25 mg/kg, po measured upto 24 hrs by LC-MS/MS analysis; assay type: ADME, organism-based; settings: read-out: beta t1/2 (converted)
[30] = Tmax in BALB/c mouse brain at 50 mg/kg, po measured upto 24 hrs by LC-MS/MS analysis; assay type: ADME, organism-based
[31] = Toxicity in BALB/c mouse assessed as disseminated necrosis of hepatocytes at 50 mg/kg, po administered for 5 days and measured after 14 days by hematoxylin-eosin staining based microscopic analysis; assay type: organism-based; settings: in vivo, 120 h, time 5 day
[32] = Cmax in BALB/c mouse brain at 25 mg/kg, po measured upto 24 hrs by LC-MS/MS analysis; assay type: ADME, organism-based; set-up: time < 24 hrs, dose 25 mg/kg, route po; settings: in vivo
[33] = Cmax in BALB/c mouse brain at 50 mg/kg, po measured upto 24 hrs by LC-MS/MS analysis; assay type: ADME, organism-based; set-up: time < 24 hrs, dose 50 mg/kg, route po; settings: in vivo
[34] = Toxicity in BALB/c mouse assessed as changes in creatinine level at 50 mg/kg, po administered for 5 days and measured on day 1 and day 14 by colorimetric assay; assay type: organism-based; settings: in vivo, 120 h, time 5 day
[35] = tested on: Toxoplasma gondii; test: Antiparasitic activity against Toxoplasma gondii RH infected in BALB/c mouse assessed as reduction in number of bradyzoite gene copies in muscles at 25 mg/kg, po administered every 24 hrs for 5 days starting from 24 hrs post infection by real-time qPCR analysis; assay type: functional; settings: time 5 day
[36] = Tmax in BALB/c mouse brain at 25 mg/kg, po measured upto 24 hrs by LC-MS/MS analysis; assay type: ADME, organism-based
[37] = Toxicity in BALB/c mouse assessed as increase in serum ALT level at 50 mg/kg, po administered for 5 days and measured after 14 days by ELISA method; assay type: organism-based; settings: in vivo, 120 h, time 5 day
[38] = Elimination half-life in BALB/c mouse brain at 50 mg/kg, po measured upto 24 hrs by LC-MS/MS analysis; assay type: ADME, organism-based; settings: read-out: beta t1/2 (converted)
[39] = AUC in BALB/c mouse brain at 50 mg/kg, po measured upto 24 hrs by LC-MS/MS analysis; assay type: ADME, organism-based; set-up: dose 50 mg/kg, time < 24 hrs, route po
[40] = tested on: Toxoplasma gondii; test: Antiparasitic activity against Toxoplasma gondii RH infected in BALB/c mouse assessed as prolongation of animal survival at 25 to 50 mg/kg, po administered for 5 days starting from 24 hrs post infection by Kaplan-Meier method; assay type: functional, organism-based; settings: dose 25-50 mg/kg, time 5.0 day
[41] = AUC in BALB/c mouse serum at 25 mg/kg, po measured upto 60 mins by LC-MS/MS analysis; assay type: ADME, organism-based; set-up: dose 25 mg/kg, time < 60 min, route po; settings: in vivo, 1 h
[42] = tested on: Toxoplasma gondii; test: Antiparasitic activity against Toxoplasma gondii DX infected in C3H/HeOuJ mouse assessed as prolongation of survival at 25 to 50 mg/kg, po administered for 5 days starting from 24 hrs post infection by Kaplan-Meier method; assay type: functional, organism-based; settings: dose 25-50 mg/kg, time 5.0 day
[43] = Toxicity in BALB/c mouse assessed as changes in size of hepatocyte nuclei at 50 mg/kg, po administered for 5 days and measured after 1 day by hematoxylin-eosin staining based microscopic analysis; assay type: organism-based; settings: hepatocytes, 120 h, time 5 day
[44] = tested on: Toxoplasma gondii; test: Antiparasitic activity against Toxoplasma gondii RH infected in BALB/c mouse assessed as reduction of bradyzoite gene copies in heart at 50 mg/kg, po administered every 12 and 24 hrs for 5 days starting from 24 hrs post infection by real-time qPCR analysis; assay type: functional, organism-based; settings: time 5.0 day

## Cc1nc[nH]c1C(=O)NNC(=S)Nc1ccc([N+](=O)[O-])cc1
[1]
  bioavailability: 10.7%
[2]
  beta t1/2: 52.8 min
[3]
  bioavailability: 0.46%
[4]
  beta t1/2: 24 min
[5]
  Activity: Active
[6]
  Activity: Active
[7]
  Tmax: 15 min
[8]
  Cmax: 6400 ng/mL
[9]
  Activity: Non-Toxic
[10]
  bioavailability: 4.06%
[11]
  IC50: 67.5 µM
[12]
  CC30: 682.98 µM
[13]
  Activity: Non-Toxic
[14]
  bioavailability: 1.17%
[15]
  CC30: 697.67 µM
[16]
  survival at 50 mg/kg: 20%
[17]
  AUC at 24 h: 24.9 ng·h/mL
[18]
  Tmax: 30 min
[19]
  Cmax: 11080 ng/mL
[20]
  Activity: Non-Toxic
[21]
  Activity: Toxic
[22]
  Activity: Active
[23]
  Activity: Toxic
[24]
  Activity: Non-Toxic
[25]
  Activity: Non-Toxic
[26]
  AUC: 40640 ng·h/mL
[27]
  Activity: Active
[28]
  Activity: Toxic
[29]
  half-life: 175 min
[30]
  Tmax: 30 min
[31]
  Activity: Toxic
[32]
  Cmax: 7.74 ng/mg
[33]
  Cmax: 32.27 ng/mg
[34]
  Activity: Non-Toxic
[35]
  Activity: 20
[36]
  Tmax: 120 min
[37]
  Activity: Non-Toxic
[38]
  half-life: 54.6 min
[39]
  AUC at 24 h: 47.5 ng·h/mL
[40]
  Activity: Active
[41]
  AUC: 53700 ng·h/mL
[42]
  Activity: Active

## Cc1nc[nH]c1C(=O)NNC(=S)Nc1cccc(I)c1
[1]
  bioavailability: 30.1%
[2]
  beta t1/2: 24.6 min
[3]
  bioavailability: 0.46%
[4]
  beta t1/2: 23.4 min
[5]
  Activity: Active
[7]
  Tmax: 15 min
[8]
  Cmax: 30850 ng/mL
[9]
  Activity: Non-Toxic
[10]
  bioavailability: 17%
[11]
  IC50: 25.7 µM
[12]
  CC30: 213.27 µM
[13]
  Activity: Non-Toxic
[14]
  bioavailability: 0.98%
[15]
  CC30: 209.45 µM
[16]
  survival at 50 mg/kg: 20%
[17]
  AUC at 24 h: 69.9 ng·h/mL
[18]
  Tmax: 15 min
[19]
  Cmax: 35320 ng/mL
[20]
  Activity: Non-Toxic
[21]
  Activity: Toxic
[22]
  Activity: Active
[24]
  Activity: Non-Toxic
[25]
  Activity: Non-Toxic
[26]
  AUC: 170390 ng·h/mL
[27]
  Activity: Active
[28]
  Activity: Toxic
[29]
  half-life: 29.4 min
[30]
  Tmax: 30 min
[31]
  Activity: Toxic
[32]
  Cmax: 94.16 ng/mg
[33]
  Cmax: 174.33 ng/mg
[34]
  Activity: Non-Toxic
[35]
  Activity: 16
[36]
  Tmax: 15 min
[37]
  Activity: Toxic
[38]
  half-life: 45.6 min
[39]
  AUC at 24 h: 167 ng·h/mL
[43]
  Activity: Toxic
[44]
  Activity: Active
[40]
  Activity: Active
[41]
  AUC: 150550 ng·h/mL
[42]
  Activity: Active
